From US20060205788A1, “Compounds having activity at 5ht2c receptor and uses thereof” (priority 2003, published 2006) come the findings set out here.

SMILES strings stand for the structures.

As usually defined, the melting point is the temperature, or range, at which the solid turns liquid. In the case of `COc1ccc(C2=CCN(c3ccc(Cl)c(Cl)c3)C2=O)cc1OCCN1CCCCC1`, the melting point was 98 to 99 °C.
